In BindingDB's records for doi:10.1021/jm9806300 (Massachusetts General Hospital, 1999):

Molecular target: muscle nicotinic acetylcholine receptor (Mus musculus)
Experiment: The compound was tested for inhibitory potency against Nicotinic acetylcholine receptor in mouse muscle.

IC50: 33 µM
SMILES: CCCCCC1(CCO)N=N1 [2-(3-Pentyl-3H-diazirin-3-yl)-ethanol]
